Results as given in patent publication US10065970B2 (Genentech, Inc., priority 2015, dated 2018).

Molecular target: PI3Kα (alpha) (Homo sapiens (Human), UniProt P42336)
Test: p110α (alpha) PI3K Binding Assay (ADP-Glo lipid kinase reaction)
Format: biochemical
Conditions: PI3K alpha 0.2 nM, ATP 40 μM, PIP2:3PS 50 μM, 120 min, room temperature; Ki by Morrison Equation; read-out: PI3Kα-(alpha) ATP (Ki) micromolar
Experimental: The ability of a compound of the invention to act as an inhibitor of PI3Kα was determined using the methods of Example 901.
PI3K Binding assays are intended for determining the biochemical potency of small molecule PI3K inhibitors. The PI3K lipid kinase reaction is performed in the presence of PIP2:3PS lipid substrate (Promega #V1792) and ATP. Following the termination if the kinase reaction, turnover of ATP to ADP by the phosphorylation of the lipid substrate is detected using the Promega ADP-Glo™ (Promega #V1792) assay. Reactions are carried out using the following conditions:
After 120 minutes of reaction time, the kinase reaction is terminated. Any ATP remaining after the reaction is depleted, leaving only ADP. Then the Kinase Detection Reagent is added to convert ADP to ATP, which is used in a coupled luciferin/luciferase reaction. The luminescent output is measured and is correlated with kinase activity.
All reactions are carried out at room temperature. A 3 μl mixture (1:1) of enzyme/lipid substrate solution is added to a 384 well white assay plate (Perkin Elmer #6007299) containing 50 nl of test compound or DMSO only for untreated controls. The reaction is started by the addition of 2 μl ATP/MgCl2. The kinase reaction buffer contains 50 mM HEPES, 50 mM NaCl, 3 mM MgCl2, 0.01% BSA, 1% DMSO, and enzyme and substrate concentrations as indicated in the above table. The reaction is stopped by the addition of 10 μL ADP-Glo reagent. Plates are read in a Perkin Elmer Envision system using luminescence mode. 10 point dose response curves are generated for each test compound. Ki values for each compound are determined using the Morrison Equation.

Sequence of PI3Kα (alpha) (P42336 whole entry): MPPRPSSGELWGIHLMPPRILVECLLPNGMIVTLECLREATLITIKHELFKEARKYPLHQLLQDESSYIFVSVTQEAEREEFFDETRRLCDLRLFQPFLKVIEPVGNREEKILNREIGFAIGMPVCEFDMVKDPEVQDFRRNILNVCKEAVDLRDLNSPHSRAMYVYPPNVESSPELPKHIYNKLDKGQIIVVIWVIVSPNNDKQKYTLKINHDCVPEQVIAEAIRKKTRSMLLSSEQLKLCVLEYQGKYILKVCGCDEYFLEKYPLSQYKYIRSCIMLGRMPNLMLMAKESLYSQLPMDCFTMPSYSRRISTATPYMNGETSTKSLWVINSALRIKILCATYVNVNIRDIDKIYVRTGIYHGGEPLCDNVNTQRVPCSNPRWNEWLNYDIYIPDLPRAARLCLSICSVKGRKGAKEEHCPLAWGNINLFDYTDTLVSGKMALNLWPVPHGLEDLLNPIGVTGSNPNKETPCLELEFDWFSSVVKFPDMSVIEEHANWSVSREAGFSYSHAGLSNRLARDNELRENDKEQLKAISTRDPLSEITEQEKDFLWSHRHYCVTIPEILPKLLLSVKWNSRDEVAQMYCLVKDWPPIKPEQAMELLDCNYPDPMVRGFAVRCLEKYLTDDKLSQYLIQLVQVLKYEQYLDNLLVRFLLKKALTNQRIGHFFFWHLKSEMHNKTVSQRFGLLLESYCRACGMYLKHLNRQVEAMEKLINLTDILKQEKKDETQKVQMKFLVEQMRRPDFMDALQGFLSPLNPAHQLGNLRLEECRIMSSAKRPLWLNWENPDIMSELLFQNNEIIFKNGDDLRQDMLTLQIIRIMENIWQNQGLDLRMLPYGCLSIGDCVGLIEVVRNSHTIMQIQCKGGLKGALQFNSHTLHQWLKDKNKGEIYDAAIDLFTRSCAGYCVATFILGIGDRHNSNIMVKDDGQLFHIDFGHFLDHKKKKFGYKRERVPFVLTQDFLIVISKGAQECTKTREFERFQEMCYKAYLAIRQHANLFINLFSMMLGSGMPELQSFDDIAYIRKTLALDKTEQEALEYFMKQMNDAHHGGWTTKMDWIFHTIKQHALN
Sequence of PI3Kα (alpha) (P27986 whole entry partner): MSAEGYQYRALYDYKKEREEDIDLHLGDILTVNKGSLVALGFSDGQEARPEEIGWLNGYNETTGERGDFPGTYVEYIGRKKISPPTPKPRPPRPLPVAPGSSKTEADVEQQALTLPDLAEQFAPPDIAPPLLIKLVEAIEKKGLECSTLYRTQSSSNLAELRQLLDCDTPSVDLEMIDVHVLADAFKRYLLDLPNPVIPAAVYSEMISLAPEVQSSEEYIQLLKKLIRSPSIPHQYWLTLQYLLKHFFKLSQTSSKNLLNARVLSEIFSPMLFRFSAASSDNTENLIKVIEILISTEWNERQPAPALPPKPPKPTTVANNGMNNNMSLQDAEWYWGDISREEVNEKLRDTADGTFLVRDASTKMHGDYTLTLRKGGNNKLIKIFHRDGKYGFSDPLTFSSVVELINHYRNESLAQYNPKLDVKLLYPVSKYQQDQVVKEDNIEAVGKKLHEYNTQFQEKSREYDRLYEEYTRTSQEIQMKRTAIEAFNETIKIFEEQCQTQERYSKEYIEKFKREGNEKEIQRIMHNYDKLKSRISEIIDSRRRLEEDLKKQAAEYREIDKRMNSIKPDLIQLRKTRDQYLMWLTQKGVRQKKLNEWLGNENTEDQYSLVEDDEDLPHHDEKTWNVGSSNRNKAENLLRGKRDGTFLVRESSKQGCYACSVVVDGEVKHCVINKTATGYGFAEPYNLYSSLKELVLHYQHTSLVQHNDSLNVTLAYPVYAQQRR

SMILES | Ki
COc1ccc(-c2nc3cc(N[C@H](C(N)=O)C4CC4)cc4c3n2CCCO4)cc1OC(F)F [Example 163, (S)-2-Cyclopropyl-2-((1-(3-(difluoromethoxy)-4-methoxyphenyl)-8,9-dihydro-7H-6-oxa-2,9a-diazabenzo[cd]azulen-4-yl)amino)acetamide] | 34.2 nM
NC(=O)[C@@H](Nc1cc2c3c(c1)nc(-c1ccc4oc(=O)[nH]c4c1)n3CCCO2)C1CC1 [Example 196, (S)-2-Cyclopropyl-2-((1-(2-oxo-2,3-dihydrobenzo[d]oxazol-5-yl)-8,9-dihydro-7H-6-oxa-2,9a-diazabenzo[cd]azulen-4-yl)amino)acetamide] | 314 nM
NC(=O)[C@@H](Nc1cc2c3c(c1)nc(-c1ccc4cncnc4c1)n3CCCO2)C1CC1 [Example 116, (S)-2-Cyclopropyl-2-((1-(quinazolin-7-yl)-8,9-dihydro-7H-6-oxa-2,9a-diazabenzo [cd]azulen-4-yl)amino) acetamide] | 19 nM
COC[C@H](Oc1cc2c3c(c1)nc(-c1ccc4nc(N)sc4n1)n3CCCCO2)C(N)=O (single isomer, unassigned) [Example 315] | < 0.02 nM
NC(=O)[C@@H](Nc1cc2c3c(c1)nc(N1CCCOCC1)n3CCCO2)C1CC1 [Example 180, (S)-2-((1-(1,4-Oxazepan-4-yl)-8,9-dihydro-7H-6-oxa-2,9a-diazabenzo[cd]azulen-4-yl)amino)-2-cyclopropylacetamide] | 664 nM
NC(=O)[C@@H](Nc1cc2c3c(c1)nc(-c1ccnc4[nH]cnc14)n3CCCO2)C1CC1 [Example 176, (S)-2-((1-(3H-Imidazo[4,5-b]pyridin-7-yl)-8,9-dihydro-7H-6-oxa-2,9a-diazabenzo[cd]azulen-4-yl)amino)-2-cyclopropylacetamide] | 326 nM
CNc1nc2cc(-c3nc4cc(N5CCC[C@H]5C(N)=O)cc5c4n3CCCO5)ccc2o1 [Example 186, (S)-1-(1-(2-(methylamino)benzo-[d]oxazol-5-yl)-8,9-dihydro-7H-6-oxa-2,9a-diazabenzo[cd]azulen-4-yl)pyrrolidine-2-carboxamide] | 6.93 nM
CC[C@H](Oc1cc2c3c(c1)nc(-c1cc(F)c4oc(N)nc4c1)n3CCCCO2)C(N)=O [Example 272, (S)-2-((1-(2-Amino-7-fluorobenzo[d]oxazol-5-yl)-7,8,9,10-tetrahydro-6-oxa-2,10a-diazacycloocta[cd]inden-4-yl)oxy)butanamide] | < 0.02 nM
C[C@H](Oc1cc2c3c(c1)nc(-c1ccc4nc(N)sc4c1F)n3CCCCO2)C(N)=O (single isomer, unassigned) [Example 286] | 0.072 nM
C[C@@H]1Cn2c(-c3ccc4oc(N)nc4c3)nc3cc(N[C@H](C(N)=O)C4CC4)cc(c32)O1 [Example 238, (S)-2-(((R)-2-(2-Aminobenzo[d]oxazol-5-yl)-4-methyl-3,4-dihydro-5-oxa-1,2a-diazaacenaphthylen-7-yl)amino)-2-cyclopropylacetamide] | 0.045 nM
C[C@H](Nc1cc2c3c(c1)nc(-c1ccccn1)n3CCCO2)C(N)=O [Example 112, (S)-2-((1-(Pyridin-2-yl)-8,9-dihydro-7H-6-oxa-2,9a-diazabenzo[cd]azulen-4-yl)amino)propanamide] | 160 nM
NC(=O)[C@@H](Nc1cc2c3c(c1)nc(N1CCn4ncnc4C1)n3CCCO2)C1CC1 [Example 161, (S)-2-Cyclopropyl-2-((1-(5,6-dihydro-[1,2,4]triazolo[1,5-a]pyrazin-7(8H)-yl)-8,9-dihydro-7H-6-oxa-2,9a-diazabenzo[cd]azulen-4-yl)amino)acetamide] | 121 nM
NC(=O)[C@@H]1CCCN1c1cc2c3c(c1)nc(-c1ccnc4[nH]nnc14)n3CCCO2 [Example 206, (S)-1-(1-(3H-[1,2,3]Triazolo[4,5-b]pyridin-7-yl)-8,9-dihydro-7H-6-oxa-2,9a-diazabenzo[cd]azulen-4-yl)pyrrolidine-2-carb oxamide] | 25.9 nM
OCc1nc2cc(-c3nc4cc(Br)cc5c4n3CCCO5)ccc2o1 [Example 168, (5-(4-Bromo-8,9-dihydro-7H-6-oxa-2,9a-diazabenzo[cd]azulen-1-yl)benzo[d]oxazol-2-yl)methanol] | 402 nM
C[C@H](Nc1cc2c3c(c1)nc(-c1ccc4oc(N)nc4c1)n3CCCO2)C(N)=O [Example 105, (S)-2-((1-(2-Aminobenzo[d]oxazol-5-yl)-8,9-dihydro-7H-6-oxa-2,9a-diazabenzo[cd]azulen-4-yl)amino)propanamide] | 0.032 nM
NC(=O)[C@@H]1CCCN1c1cc2c3c(c1)nc(-c1ccc(-c4ncsn4)cc1)n3CCCO2 [Example 227, (S)-1-(1-(4-(1,2,4-Thiadiazol-3-yl)phenyl)-8,9-dihydro-7H-6-oxa-2,9a-diazabenzo[cd]azulen-4-yl)pyrrolidine-2-carboxamide] | 8.21 nM

SMILES | Ki
NC(=O)[C@@H](Nc1cc2c3c(c1)nc(-c1cc(C(F)(F)F)c4oc(N)nc4c1)n3CCCO2)C1CC1 [Example 235, (S)-2-((1-(2-Amino-7-(trifluoromethyl)benzo[d]oxazol-5-yl)-8,9-dihydro-7H-6-oxa-2,9a-diazabenzo[cd]azulen-4-yl)amino)-2-cyclopropylacetamide] | 0.209 nM
NC(=O)[C@H](Oc1cc2c3c(c1)nc(-c1cc(F)c4nc(N)sc4c1)n3CCCCO2)C1CC1 (single isomer, unassigned) [Example 279] | 1.02 nM
C[C@H](Nc1cc2c3c(c1)nc(N1CCC(CO)CC1)n3CCCO2)C(N)=O [Example 140, (S)-2-[1-(4-Hydroxymethylpiperidin-1-yl)-8,9-dihydro-7H-6-oxa-2,9a-diazabenzo[cd]azulen-4-ylamino]propionamide] | 681 nM
C[C@H](C(N)=O)n1cc(-c2cc3c4c(c2)nc(-c2ccc5oc(N)nc5c2)n4CCCO3)cn1 [Example 218, (R)-2-(4-(1-(2-Aminobenzo[d]oxazol-5-yl)-8,9-dihydro-7H-6-oxa-2,9a-diazabenzo[cd]azulen-4-yl)-1H-pyrazol-1-yl)propanamide] | 0.143 nM
Cc1nc2nc(-c3nc4cc(Br)cc5c4n3CCCO5)ccc2o1 [Example 102, 4-bromo-1-(2-methyloxazolo[4,5-b]pyridin-5-yl)-8,9-dihydro-7H-6-oxa-2,9a-diazabenzo[cd]azulene] | 322 nM
COC[C@H](Oc1cc2c3c(c1)nc(-c1ccc4nc(N)sc4c1)n3CCCCO2)C(N)=O (single isomer, unassigned) [Example 303] | 5.62 nM
CC[C@H](C(N)=O)n1cc(-c2cc3c4c(c2)nc(-c2ccc5oc(N)nc5n2)n4CCCCO3)cn1 (single isomer, unassigned) [Example 302] | 0.102 nM
NC(=O)c1cc(-c2nc3cc(N[C@H](C(N)=O)C4CC4)cc4c3n2CCCO4)ccn1 [Example 151, (S)-4-(4-((2-Amino-1-cyclopropyl-2-oxoethyl)amino)-8,9-dihydro-7H-6-oxa-2,9a-diazabenzo[cd]azulen-1-yl)picolinamide] | 10.2 nM
Cn1nc(-c2nc3cc(N[C@H](C(N)=O)C4CC4)cc4c3n2CCCO4)ccc1=O [Example 129, (S)-2-Cyclopropyl-2-((1-(1-methyl-6-oxo-1,6-dihydropyridazin-3-yl)-8,9-dihydro-7H-6-oxa-2,9a-diazabenzo[cd]azulen-4-yl)amino)acetamide] | 257 nM
NC(=O)[C@@H]1[C@@H](F)CCN1c1cc2c3c(c1)nc(-c1ccc4oc(N)nc4c1)n3CCCCO2 [Example 294, (2R,3S)-1-(1-(2-Aminobenzo[d]oxazol-5-yl)-7,8,9,10-tetrahydro-6-oxa-2,10a-diazacycloocta[cd]inden-4-yl)-3-fluoropyrrolidine-2-carboxamide] | < 0.02 nM
NC(=O)[C@@H](Nc1cc2c3c(c1)nc(-c1ccnnc1)n3CCCO2)C1CC1 [Example 125, (S)-2-Cyclopropyl-2-((1-(pyridazin-4-yl)-8,9-dihydro-7H-6-oxa-2,9a-diazabenzo [cd]azulen-4-yl)amino)acetamide] | 221 nM
NC(=O)[C@@H](Nc1cc2c3c(c1)nc(-c1ccc4oc(N)nc4c1)n3CCCO2)C1CC1 [Example 135, (S)-2-((1-(2-Aminobenzo[d]oxazol-5-yl)-8,9-dihydro-7H-6-oxa-2,9a-diazabenzo[cd]azulen-4-yl)amino)-2-cyclopropylacetamide] | 0.076 nM
NC(=O)[C@@H](Nc1cc2c3c(c1)nc(-c1ccc4nc(N)cnc4c1)n3CCCO2)C1CC1 [Example 187, (S)-2-((1-(2-Aminoquinoxalin-6-yl)-8,9-dihydro-7H-6-oxa-2,9a-diazabenzo[cd]azulen-4-yl)amino)-2-cyclopropylacetamide] | 0.056 nM
NC(=O)[C@@H](Nc1cc2c3c(c1)nc(-c1ccc4c(c1)OCCO4)n3CCCO2)C1CC1 [Example 138, (S)-2-Cyclopropyl-2-((1-(2,3-dihydrobenzo[b][1,4]dioxin-6-yl)-8,9-dihydro-7H-6-oxa-2,9a-diazabenzo[cd]azulen-4-yl)amino)acetamide] | 22.9 nM
CC[C@H](Oc1cc2c3c(c1)nc(-c1ccc4oc(N)nc4c1)n3CCCCO2)C(N)=O [Example 271, (S)-2-((1-(2-Aminobenzo[d]oxazol-5-yl)-7,8,9,10-tetrahydro-6-oxa-2,10a-diazacycloocta[cd]inden-4-yl)oxy)butanamide] | < 0.02 nM
